Data taken from ChEMBL document CHEMBL6177993, “De Novo 3-(Phenylcarbamoyl) Benzoate Analogues: Efficacy against Multidrug-Resistant S. aureus and Elucidation of the Biodistribution Profile” (J Med Chem, 2025).
≈ marks a conversion by molar mass, not a printed value. Calls of active or inactive are those of the source. The rule behind the calls is not given here.

Tests used:
Enterococcus faecalis = assay: Antibacterial activity against Enterococcus faecalis ATCC 35550 assessed as reduction in bacterial growth measured after 18 to 24 hrs by broth microdilution method; type: functional; details: time 18-24 hrs
Bacillus subtilis = assay: Antibacterial activity against Bacillus subtilis IITKSM1 assessed as reduction in bacterial growth measured after 18 to 24 hrs by broth microdilution method; type: functional; details: time 18-24 hrs
Staphylococcus aureus [1] = assay: Antibacterial activity against Staphylococcus aureus ATCC 29213 assessed as reduction in bacterial growth measured after 18 to 24 hrs by broth microdilution method; type: functional; details: time 18-24 hrs
Klebsiella pneumoniae = assay: Antibacterial activity against Klebsiella pneumoniae BAA 1705 assessed as reduction in bacterial growth measured after 18 to 24 hrs by broth microdilution method; type: functional; details: time 18-24 hrs
Acinetobacter baumannii = assay: Antibacterial activity against Acinetobacter baumannii BAA 1605 assessed as reduction in bacterial growth measured after 18 to 24 hrs by broth microdilution method; type: functional; details: time 18-24 hrs
Pseudomonas aeruginosa = assay: Antibacterial activity against Pseudomonas aeruginosa ATCC 27853 assessed as reduction in bacterial growth measured after 18 to 24 hrs by broth microdilution method; type: functional; details: time 18-24 hrs
Escherichia coli = assay: Antibacterial activity against Escherichia coli ATCC 25922 assessed as reduction in bacterial growth measured after 18 to 24 hrs by broth microdilution method; type: functional; details: time 18-24 hrs
[2] = Solubility of the compound in distilled water; type: physicochemical; details: buffer
[3] = Solubility of the compound in DMSO/DMF; type: physicochemical
Staphylococcus aureus [4] = assay: Antibacterial activity against methicillin-sensitive Staphylococcus aureus ATCC 29213 assessed as reduction in bacterial growth measured after 18 to 24 hrs by broth microdilution method; type: functional; details: time 18-24 hrs
Staphylococcus aureus [5] = assay: Antibacterial activity against methicillin-resistant Staphylococcus aureus NRS 100 assessed as reduction in bacterial growth measured after 18 to 24 hrs by broth microdilution method; type: functional; details: time 18-24 hrs
Staphylococcus aureus [6] = assay: Antibacterial activity against methicillin-resistant Staphylococcus aureus NRS 119 assessed as reduction in bacterial growth measured after 18 to 24 hrs by broth microdilution method; type: functional; details: time 18-24 hrs
Staphylococcus aureus [7] = assay: Antibacterial activity against methicillin-resistant Staphylococcus aureus NRS 129 assessed as reduction in bacterial growth measured after 18 to 24 hrs by broth microdilution method; type: functional; details: time 18-24 hrs
Staphylococcus aureus [8] = assay: Antibacterial activity against methicillin-resistant Staphylococcus aureus NRS 186 assessed as reduction in bacterial growth measured after 18 to 24 hrs by broth microdilution method; type: functional; details: time 18-24 hrs
Staphylococcus aureus [9] = assay: Antibacterial activity against methicillin-resistant Staphylococcus aureus NRS 191 assessed as reduction in bacterial growth measured after 18 to 24 hrs by broth microdilution method; type: functional; details: time 18-24 hrs
Staphylococcus aureus [10] = assay: Antibacterial activity against methicillin-resistant Staphylococcus aureus NRS 192 assessed as reduction in bacterial growth measured after 18 to 24 hrs by broth microdilution method; type: functional; details: time 18-24 hrs
Staphylococcus aureus [11] = assay: Antibacterial activity against methicillin-resistant Staphylococcus aureus NRS 193 assessed as reduction in bacterial growth measured after 18 to 24 hrs by broth microdilution method; type: functional; details: time 18-24 hrs
Staphylococcus aureus [12] = assay: Antibacterial activity against methicillin-resistant Staphylococcus aureus NRS 194 assessed as reduction in bacterial growth measured after 18 to 24 hrs by broth microdilution method; type: functional; details: time 18-24 hrs
Staphylococcus aureus [13] = assay: Antibacterial activity against methicillin-resistant Staphylococcus aureus NRS 198 assessed as reduction in bacterial growth measured after 18 to 24 hrs by broth microdilution method; type: functional; details: time 18-24 hrs
Staphylococcus aureus [14] = assay: Antibacterial activity against vacomycin-resistant Staphylococcus aureus VRS 1 assessed as reduction in bacterial growth measured after 18 to 24 hrs by broth microdilution method; type: functional; details: time 18-24 hrs
Staphylococcus aureus [15] = assay: Antibacterial activity against vacomycin-resistant Staphylococcus aureus VRS 4 assessed as reduction in bacterial growth measured after 18 to 24 hrs by broth microdilution method; type: functional; details: time 18-24 hrs
Staphylococcus aureus [16] = assay: Antibacterial activity against vacomycin-resistant Staphylococcus aureus VRS 12 assessed as reduction in bacterial growth measured after 18 to 24 hrs by broth microdilution method; type: functional; details: time 18-24 hrs
[17] = Hemolytic activity in human Red blood cell at 32 ug/ml measured after 1 hrs by spectrophotometric analysis relative to control; type: toxicity, cell-based, Erythrocyte; details: red blood cells, at 32 µg/mL, read-out: Activity
HEK293 [18] = assay: Cytotoxicity against HEK293 cells assessed as cell viability at 1 times MIC measured after 24 hrs by Calcein-AM/PI staining based fluorescence microscopy analysis; type: toxicity; details: human, hek293, 24 h
HEK293 [19] = assay: Cytotoxicity against HEK293 cells assessed as cell viability measured after 72 hrs by MTT assay; type: toxicity, cell-based; details: human, hek293, 72 h
Staphylococcus aureus [20] = assay: Inhibition of biofilm in Staphylococcus aureus ATCC 29213 at 1 times MIC measured after 12 hrs by crystal violet staining based analysis relative to control; type: functional
Staphylococcus aureus [21] = assay: Inhibition of biofilm in Staphylococcus aureus ATCC 29213 at 0.5 times MIC measured after 12 hrs by crystal violet staining based analysis relative to control; type: functional
Staphylococcus aureus [22] = assay: Inhibition of biofilm in Staphylococcus aureus ATCC 29213 at 2 times MIC measured after 12 hrs by crystal violet staining based analysis relative to control; type: functional
Staphylococcus aureus [23] = assay: Inhibition of biofilm in Staphylococcus aureus ATCC 29213 at 2 ug/ml measured after 12 hrs by crystal violet staining based analysis; type: functional, organism-based; details: dose 2.0 µg/ml
Staphylococcus aureus [24] = assay: Antibacterial activity against Staphylococcus aureus ATCC 29213 measured after 20 passages; type: functional, organism-based
Cell membrane [25] = assay: Disruption of cell membrane in Staphylococcus aureus ATCC 29213 assessed as increase in red fluorescence at 5 to 10 times MIC measured after 4 hrs by DAPI and PI staining based fluorescence microscopic analysis
Cell membrane [26] = assay: Disruption of cell membrane in Staphylococcus aureus ATCC 29213 assessed as increase in PI uptake at 10 times MIC measured after 8 mins by fluorescence based microplate reader analysis
Staphylococcus aureus [27] = assay: Induction of morphological changes in Staphylococcus aureus ATCC 29213 assessed as cell shrinkage at 10 times MIC measured after 4 hrs by atomic force microscopy based analysis (reference value: 60.170 nanometer); type: functional
Staphylococcus aureus [28] = assay: Induction of morphological changes in Staphylococcus aureus ATCC 29213 assessed as cell shrinkage by measuring cells height at 10 times MIC measured after 4 hrs by atomic force microscopy based analysis (reference value: 170.8 nanometer); type: functional
Staphylococcus aureus [29] = assay: Induction of morphological changes in Staphylococcus aureus ATCC 29213 assessed as cell shrinkage by measuring cells diameter at 10 times MIC measured after 4 hrs by atomic force microscopy based analysis (reference value: 1.017 micrometer); type: functional
Staphylococcus aureus [30] = assay: Induction of morphological changes in Staphylococcus aureus ATCC 29213 assessed as cell deformation at 2 to 10 times MIC measured after 4 hrs by Scanning electron microscopy based analysis; type: functional, organism-based
Staphylococcus aureus [31] = assay: Induction of morphological changes in Staphylococcus aureus ATCC 29213 assessed as appearance of cell surface fold at 2 to 10 times MIC measured after 4 hrs by Scanning electron microscopy based analysis; type: functional, organism-based
Staphylococcus aureus [32] = assay: Induction of morphological changes in Staphylococcus aureus ATCC 29213 assessed as cell shrinkage at 2 to 10 times MIC measured after 4 hrs by Scanning electron microscopy based analysis; type: functional, organism-based
Staphylococcus aureus [33] = assay: Induction of morphological changes in Staphylococcus aureus ATCC 29213 assessed as accumulation of cellular debris at 2 to 10 times MIC measured after 4 hrs by Scanning electron microscopy based analysis; type: functional, organism-based
Staphylococcus aureus [34] = assay: Induction of morphological changes in Staphylococcus aureus ATCC 29213 assessed as leakage of subcellular components at 2 to 10 times MIC measured after 4 hrs by Scanning electron microscopy based analysis; type: functional, organism-based
Staphylococcus aureus [35] = assay: Synergistic antibacterial activity against Staphylococcus aureus ATCC 29213 assessed as fractional inhibitory concentration index in presence of vancomycin by checkerboard assay; type: functional
Staphylococcus aureus [36] = assay: Synergistic antibacterial activity against Staphylococcus aureus ATCC 29213 assessed as fractional inhibitory concentration index in presence of levofloxacin by checkerboard assay; type: functional
[37] = molecular target: T1, UDP-N-acetylenolpyruvoylglucosamine reductase (Staphylococcus aureus, UniProt P61431); assay: Binding affinity to Staphylococcus aureus MurB assessed as inhibition constant
T1 sequence (P61431 whole entry): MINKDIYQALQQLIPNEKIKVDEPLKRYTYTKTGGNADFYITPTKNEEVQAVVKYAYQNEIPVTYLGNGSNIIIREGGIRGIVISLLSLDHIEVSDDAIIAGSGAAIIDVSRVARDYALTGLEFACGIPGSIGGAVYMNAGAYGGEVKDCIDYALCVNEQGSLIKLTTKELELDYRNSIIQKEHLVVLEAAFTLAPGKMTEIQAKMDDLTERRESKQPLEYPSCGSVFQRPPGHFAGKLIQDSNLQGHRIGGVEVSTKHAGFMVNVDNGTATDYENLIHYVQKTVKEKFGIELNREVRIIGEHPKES

[38] = Binding affinity to Staphylococcus aureus MurA assessed as inhibition constant
[39] = Binding affinity to Staphylococcus aureus MurZ assessed as inhibition constant
Staphylococcus aureus [40] = assay: Drug resistance, ratio of MIC for Staphylococcus aureus ATCC 29213 after 20 passages exposure to MIC for Staphylococcus aureus ATCC 29213 during first exposure; type: functional

SMILES: CC(C)(C)c1cc(C(c2ccccc2)c2ccccc2)c(NC(=O)c2cccc(C(=O)O)c2)c(C(c2ccccc2)c2ccccc2)c1
- MIC (Enterococcus faecalis): 1 µg/mL (≈ 0.00159 mM)
- MIC (Bacillus subtilis): 1 µg/mL (≈ 0.00159 mM)
- MIC (Staphylococcus aureus [1]): 2 µg/mL (≈ 0.00318 mM)
- MIC (Klebsiella pneumoniae): > 64 µg/mL
- MIC (Acinetobacter baumannii): > 64 µg/mL
- MIC (Pseudomonas aeruginosa): > 64 µg/mL
- MIC (Escherichia coli): > 64 µg/mL
- solubility [2]: Insoluble
- solubility [3]: 660 mg/mL (≈ 1050 mM)
- MIC (Staphylococcus aureus [4]): 4 µg/mL (≈ 0.00635 mM)
- MIC (Staphylococcus aureus [5]): 4 µg/mL (≈ 0.00635 mM)
- MIC (Staphylococcus aureus [6]): 4 µg/mL (≈ 0.00635 mM)
- MIC (Staphylococcus aureus [7]): 4 µg/mL (≈ 0.00635 mM)
- MIC (Staphylococcus aureus [8]): 4 µg/mL (≈ 0.00635 mM)
- MIC (Staphylococcus aureus [9]): 4 µg/mL (≈ 0.00635 mM)
- MIC (Staphylococcus aureus [10]): 4 µg/mL (≈ 0.00635 mM)
- MIC (Staphylococcus aureus [11]): 4 µg/mL (≈ 0.00635 mM)
- MIC (Staphylococcus aureus [12]): 4 µg/mL (≈ 0.00635 mM)
- MIC (Staphylococcus aureus [13]): 4 µg/mL (≈ 0.00635 mM)
- MIC (Staphylococcus aureus [14]): 4 µg/mL (≈ 0.00635 mM)
- MIC (Staphylococcus aureus [15]): 4 µg/mL (≈ 0.00635 mM)
- MIC (Staphylococcus aureus [16]): 4 µg/mL (≈ 0.00635 mM)
- hemolysis at 1 h, 32 ug/ml [17]: ~25%
- Activity (HEK293 [18]): Toxic
- Activity (HEK293 [19]): Toxic
- inhibition (INH) (Staphylococcus aureus [20]): 95%
- inhibition (INH) (Staphylococcus aureus [21]): >50%
- inhibition (INH) (Staphylococcus aureus [22]): 95%
- inhibition (Staphylococcus aureus [23]): Active
- Activity (Staphylococcus aureus [24]): Active
- Activity (Cell membrane [25]): Active
- Activity (Cell membrane [26]): Active
- Activity (Staphylococcus aureus [27]): 53.464 nm
- Activity (Staphylococcus aureus [28]): 105.1 nm
- Activity (Staphylococcus aureus [29]): 0.68 um
- Activity (Staphylococcus aureus [30]): Active
- Activity (Staphylococcus aureus [31]): Active
- Activity (Staphylococcus aureus [32]): Active
- Activity (Staphylococcus aureus [33]): Active
- Activity (Staphylococcus aureus [34]): Active
- fractional inhibitory concentration index (FICI) (Staphylococcus aureus [35]): 0.258
- fractional inhibitory concentration index (FICI) (Staphylococcus aureus [36]): 0.75
- Ki [37]: 2.52 µM
- Ki [38]: 117 µM
- Ki [39]: 133 µM

SMILES: CCn1cc(C(=O)O)c(=O)c2cc(F)c(N3CCNCC3)cc21 [NORFLOXACIN]
- Ratio (Staphylococcus aureus [40]): 64
